Assay results reported in patent US20230049917A1, “Pharmaceutical Composition of CASR Modulators and Methods and Uses Thereof” (Lupin Limited, priority 2019, published 2023).

Tests used:
[1] = system: iPTH; assay: Phase 2 PK-PD Study: iPTH suppression in CKD patients with SHPT; format: in vivo, human; details: 25 mg once daily
Description: A randomized, double-blind, placebo-controlled phase 2 clinical study was conducted to assess the efficacy, pharmacokinetics (PK), pharmacodynamics (PD) and safety of 2-methyl-5-((2R,4S)-2-((((R)-1-(naphthalen-1-yl)ethyl)amino)methyl) chroman yl)benzoic acid, hydrochloride (Compound 3), as a monotherapy in patients with CKD with secondary hyperparathyroidism (SHPT). The patients enrolled in the study were either on dialysis or not on dialysis. Patients could continue taking doses (whether stable dosing or otherwise) of calcium supplements, phosphate binders, vitamin D, vitamin D analogues or a combination thereof for the treatment of SHPT in combination with Compound 3. Patients can take at least one calcium supplement, phosphate binder, vitamin D, vitamin D analogue or a combination thereof concurrently or concomitantly with Compound 3. Dosing for such calcium supplements, phosphate binders, vitamin D, vitamin D analogues or a combination thereof for the treatment of SHPT can be individualized based on patient's iPTH levels, and/or can correlate with doses presently used for the treatment of SHPT.
This was an open-label, non-randomized, single arm study enrolling 10 patients of which 6 patients were on dialysis and 4 were not on dialysis. All patients received 25 mg Compound 3, once daily for […], and thereafter underwent PK-PD assessments. All 6 patients (100%) on dialysis group completed the study while 2 patients out of 4 (50%) on not on dialysis group completed the study. One objective of this study were to determine PK parameters maximum concentration, time to maximum concentration, area under the curve (AUC) (AUC from time 0 up to the last quantifiable concentration; AUC from time 0 to infinity; AUC from time 0 to 24 hours), half-life, apparent clearance, and apparent volume of distribution from blood samples collected at scheduled time-points. Yet another objective of this study was to determine PD parameters mean absolute change and mean percentage change from baseline in corrected total serum calcium and phosphorus.
For efficacy assessments, the primary efficacy assessment included measurement of iPTH and the exploratory efficacy assessment included measurement of parathyroid gland size at scheduled time points. Blood samples for measurement of iPTH were collected during Day −30 to Day −1 (Screening Period); Day 1; Day 8+/−3 days; Day 15+/−3 days; Day 30+/−3 days; Day 60+/−3 days; and Day 90+/−3 days (EOT/Early Discontinuations). […] If the blood sample collected on Day 90 could not be analysed for any reason, the second blood sample had to be collected within 3 days of end of treatment (EOT). Chemiluminescence microparticles immunoassay (CMIA) (such as Abbott's ARCHITECT® Intact PTH assay) was used to quantify iPTH in serum and plasma. […]

[2] = Pharmacokinetic analysis after oral administration of the formulation to rats; format: in vivo; details: male, Sprague Dawley, rat, in vivo, po, 5 mg/kg
Description: Male Sprague Dawley Rats (weight 225±25 gm; aged 8 to 10 weeks) were administered orally with the formulation. Each of the tested compounds was dosed at 5 mg/kg at a dose volume of 1 mL/kg. Blood samples were collected at time points 0.25, 0.5, 1, 2, 4, 6, 8 and 24 hours and analyzed the plasma concentrations of administered compound and calculated PK parameters. The plasma concentrations of the tested compounds were measured by liquid chromatography with tandem mass spectrometry (LCMS-MS) using […] extraction method. The plasma concentration-time data was subjected to Non-Compartmental Analysis using Phoenix WinNonlin® (Version 5.3) software to assess the pharmacokinetic parameters. Peak plasma concentrations (Cmax) and time for the peak plasma concentrations (Tmax) were the observed values. The area under the concentration time curve (AUC) was calculated by linear trapezoidal rule.

SMILES: Cc1ccc([C@@H]2C[C@H](CN[C@H](C)c3cccc4ccccc34)Oc3ccccc32)cc1C(=O)O.Cl [Compound 3, 2-methyl-5-((2R,4S)-2-((((R)-1-(naphthalen-1-yl)ethyl)amino)methyl)chroman-4-yl)benzoic acid hydrochloride]
- peak effect on iPTH suppression from baseline ([1]; Day 1, within 4 hours of dosing, patients on dialysis and not on dialysis): > 80.0%
- time of peak effect on iPTH suppression after dosing ([1]; Day 1 and Day 8): ≤ 4 h
- peak effect on iPTH suppression from baseline ([1]; Day 8, within 4 hours of dosing, patients not on dialysis): > 85.0%
- peak effect on iPTH suppression from baseline ([1]; Day 8, within 4 hours of dosing, patients on dialysis): > 70.0%
- AUC(0-t) [2]: 15 ± 4 µM·h
- Cmax [2]: 3.4 ± 1 µM
- Tmax [2]: 0.5 to 2 h
